From patent US20260001914A1, “MACROCYCLIC PEPTIDES TARGETING KRAS” (Merck Sharp & Dohme LLC, priority 2022, published 2026)
*1 amine or outer side, *2 acyl side, *3 side chain or, on linkers, in order; H or OH if unused. Where a SMILES comes first, the peptide text is derived from it. Bridges are numbered along the chain shown (N, C = ends). [ ]: non-standard residue; d: D form. Ala(1-bicyclo(1.1.1)pentyl) = N[C@@H](CC12CC(C1)C2)C(=O)O; Phe(4-guanidino) = N=C(N)Nc1ccc(C[C@H](N)C(=O)O)cc1; X82 = CS(=O)(=O)c1ncc(C[C@H](N[*:1])C(=O)[*:2])cn1; Ala(pyrimidin-5-yl) = N[C@@H](Cc1cncnc1)C(=O)O; Gly(N-(CH2)3-guanidino) = N=C(N)NCCCNCC(=O)O; NMe3Pal(5-F) = CN[C@@H](Cc1cncc(F)c1)C(=O)O; NMePhe(3-Me) = CN[C@@H](Cc1cccc(C)c1)C(=O)O; NMeHis(τ-Me) = CN[C@@H](Cc1cn(C)cn1)C(=O)O; X37 = O=C([C@H](Cc1cnc(F)cc1F)N[*:1])[*:2]; 3Pal(6-OMe) = COc1ccc(C[C@H](N)C(=O)O)cn1; X25 = O=C([C@H](Cc1ccc(F)nc1)N[*:1])[*:2]; Leu(4,5-dehydro) = C=C(C)C[C@H](N)C(=O)O; X11 = CC(C)(F)CC[C@H](N[*:1])C(=O)[*:2]; X13 = O=C([C@H](Cc1ccncc1F)N[*:1])[*:2]; Nle(5,5-F2) = CC(F)(F)CC[C@H](N)C(=O)O; Phe(4-F) = N[C@@H](Cc1ccc(F)cc1)C(=O)O; X40 = CC(C)(F)C[C@H](N[*:1])C(=O)[*:2]; 1Nal = N[C@@H](Cc1cccc2ccccc12)C(=O)O; Phe(2-F) = N[C@@H](Cc1ccccc1F)C(=O)O; NMe3Pal = CN[C@@H](Cc1cccnc1)C(=O)O; X1 = O=C(C12CC(CN[*:1])(C1)C2)[*:2]; Ala(cPr) = N[C@@H](CC1CC1)C(=O)O; NMeF = CN[C@@H](Cc1ccccc1)C(=O)O; PhLac = O=C(O)[C@@H](O)Cc1ccccc1; 3Pal = N[C@@H](Cc1cccnc1)C(=O)O; 4Pal = N[C@@H](Cc1ccncc1)C(=O)O; Ahp(2) = CCCCC[C@H](N)C(=O)O; Cba = N[C@@H](CC1CCC1)C(=O)O; hLeu = CC(C)CC[C@H](N)C(=O)O; αMeC = C[C@](N)(CS)C(=O)O; NMeA = CN[C@@H](C)C(=O)O; Nle = CCCC[C@H](N)C(=O)O; Pra = C#CC[C@H](N)C(=O)O

Molecular target: KRAS-G12D protein (Homo sapiens, UniProt P01116, G12D)
Assay: SOS-mediated nucleotide exchange assay (BODIPY-GDP / Tb-streptavidin TR-FRET)
Type: biochemical
Details: not given

Sequence of KRAS-G12D protein (P01116 1-188 isoform P01116-2 G12D): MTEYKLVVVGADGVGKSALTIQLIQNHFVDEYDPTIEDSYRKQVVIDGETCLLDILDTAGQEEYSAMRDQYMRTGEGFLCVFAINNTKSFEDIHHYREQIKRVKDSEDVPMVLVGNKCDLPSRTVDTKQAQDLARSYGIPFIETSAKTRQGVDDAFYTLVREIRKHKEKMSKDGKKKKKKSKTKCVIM

| Compound | EC50 [nM] |
| --- | --- |
| C=C(C)C[C@@H]1NC(=O)[C@H](CC2CC2)NC(=O)[C@H](Cc2cncnc2)NC(=O)[C@H](C)N(C)C(=O)[C@H](Cc2ccccc2)OC(=O)C23CC(CNC(=O)[C@H](Cc4ccccc4)N(C)C(=O)[C@H](CCC(C)C)NC1=O)(C2)C3 [compound 287, cyclo(FLac-NMeA-PyrimAla-cPrA-deHLeu-hL-NMeF-amBCP)] (cyclo([Ala(cPr)][Leu(4,5-dehydro)][hLeu][NMeF][X1][PhLac][NMeA][Ala(pyrimidin-5-yl)])) | 720 |
| Cc1cccc(C[C@H]2C(=O)NCC34CC(C3)(C4)C(=O)O[C@@H](Cc3ccccc3)C(=O)N(C)[C@@H](C)C(=O)N[C@@H](Cc3cncnc3)C(=O)N[C@@H](CC3CC3)C(=O)N[C@@H](Cc3ccccc3F)C(=O)N[C@@H](CCC(C)(C)F)C(=O)N2C)c1 [compound 274, cyclo(FLac-NMeA-PyrimAla-cPrA-Phe2F-hL3F-NMePhe3Me-amBCP)] (cyclo([Ala(cPr)][Phe(2-F)][X11][NMePhe(3-Me)][X1][PhLac][NMeA][Ala(pyrimidin-5-yl)])) | 1 |
| CCCC[C@@H]1NC(=O)[C@H](Cc2cccnc2)NC(=O)[C@H](C)N(C)C(=O)[C@H](Cc2ccc(F)cc2)NC(=O)C23CC(CNC(=O)[C@H](Cc4cccnc4)N(C)C(=O)[C@H](CCCC)NC(=O)[C@H](Cc4ccccc4F)NC1=O)(C2)C3 [compound 167, cyclo(Phe4F-NMeA-3Pal-Nle-Phe2F-Nle-NMe3Pal-amBCP)] (cyclo([3Pal][Nle][Phe(2-F)][Nle][NMe3Pal][X1][Phe(4-F)][NMeA])) | 99.9 |
| CCCCC[C@@H]1NC(=O)[C@H](Cc2ccc(OC)cc2)NC(=O)[C@H](CC2CCC2)NC(=O)[C@H](Cc2cccnc2)NC(=O)[C@H](CCCNC(=N)N)NC(=O)[C@H](Cc2ccccc2)NC(=O)CSC[C@@](C)(C(N)=O)NC(=O)[C@H](Cc2cn(C)cn2)N(C)C1=O [compound 378, cyclo(F-R-3Pal-cBuA-TyrOMe-Ahp-NMeHis1Me-aMeCl-ClAc)] ({CH2CO}-FR[3Pal][Cba]Y(Me)[Ahp(2)][NMeHis(τ-Me)][αMeC]-NH2; thioether N-8) | 45.2 |
| Cc1cccc(C[C@H]2C(=O)NCC34CC(C3)(C4)C(=O)O[C@@H](Cc3ccccc3)C(=O)N(C)[C@@H](C)C(=O)N[C@@H](Cc3cncnc3)C(=O)N[C@@H](CC3CC3)C(=O)N[C@@H](Cc3ccncc3F)C(=O)N[C@@H](CCC(C)C)C(=O)N2C)c1 [compound 279, cyclo(FLac-NMeA-PyrimAla-cPrA-4Pal2F-hL-NMePhe3Me-amBCP)] (cyclo([Ala(cPr)][X13][hLeu][NMePhe(3-Me)][X1][PhLac][NMeA][Ala(pyrimidin-5-yl)])) | 3 |
| C#CC[C@@H]1NC(=O)[C@H](CC2CC2)NC(=O)[C@H](Cc2cncnc2)NC(=O)[C@H](C)N(C)C(=O)[C@H](Cc2ccccc2)OC(=O)C23CC(CNC(=O)[C@H](Cc4ccccc4)N(C)C(=O)[C@H](CCC(C)C)NC1=O)(C2)C3 [compound 286, cyclo(FLac-NMeA-PyrimAla-cPrA-Pra-hL-NMeF-amBCP)] (cyclo([Ala(cPr)][Pra][hLeu][NMeF][X1][PhLac][NMeA][Ala(pyrimidin-5-yl)])) | 1990 |
| C[C@H]1C(=O)N[C@@H](Cc2cccnc2)C(=O)N[C@@H](CC2CC2)C(=O)N[C@@H](Cc2ccccc2F)C(=O)N[C@@H](CCC(C)(C)F)C(=O)N(C)[C@@H](Cc2cncc(F)c2)C(=O)NCC23CC(C2)(C3)C(=O)O[C@@H](Cc2ccccc2)C(=O)N1C [compound 284, cyclo(FLac-NMeA-3Pal-cPrA-Phe2F-hL3F-NMe3Pal5F-amBCP)] (cyclo([3Pal][Ala(cPr)][Phe(2-F)][X11][NMe3Pal(5-F)][X1][PhLac][NMeA])) | 2 |
| CCCCC[C@@H]1NC(=O)[C@H](Cc2ccc(OC)cc2)NC(=O)[C@H](CC2CCC2)NC(=O)[C@H](Cc2ccc(NC(=N)N)cc2)NC(=O)CN(CCCNC(=N)N)C(=O)[C@H](Cc2ccccc2)NC(=O)CSC[C@@](C)(C(N)=O)NC(=O)[C@H](Cc2ccccc2)N(C)C1=O [compound 361, cyclo(F-NGnG-Phe4Gn-cBuA-TyrOMe-Ahp-NMeF-aMeCl-ClAc)] ({CH2CO}-F[Gly(N-(CH2)3-guanidino)][Phe(4-guanidino)][Cba]Y(Me)[Ahp(2)][NMeF][αMeC]-NH2; thioether N-8) | 37 |
| CCCCC[C@@H]1NC(=O)[C@H](Cc2ccc(OC)cc2)NC(=O)[C@H](CC2CCC2)NC(=O)[C@H](Cc2ccc(OC)nc2)NC(=O)[C@H](CCCNC(=N)N)NC(=O)[C@H](Cc2ccccc2)NC(=O)CSC[C@@](C)(C(N)=O)NC(=O)[C@H](Cc2ccccc2)N(C)C1=O [compound 365, cyclo(F-R-40Me3Pal-cBuA-TyrOMe-Ahp-NMeF-aMeCl-ClAc)] ({CH2CO}-FR[3Pal(6-OMe)][Cba]Y(Me)[Ahp(2)][NMeF][αMeC]-NH2; thioether N-8) | 50.3 |
| CC(C)CC[C@@H]1NC(=O)[C@H](Cc2ccccc2F)NC(=O)[C@H](CC(C)(C)F)NC(=O)[C@H](Cc2cncnc2)NC(=O)[C@H](C)N(C)C(=O)[C@H](Cc2ccccc2)OC(=O)C23CC(CNC(=O)[C@H](Cc4ccccc4)N(C)C1=O)(C2)C3 [compound 136, cyclo(FLac-NMeA-PyrimAla-Leu3F-Phe2F-hL-NMeF-amBCP)] (cyclo([NMeA][Ala(pyrimidin-5-yl)][X40][Phe(2-F)][hLeu][NMeF][X1][PhLac])) | 114 |
| CCCC[C@@H]1NC(=O)[C@H](Cc2ccc(NC(=N)N)cc2)NC(=O)[C@H](CCCNC(=N)N)NC(=O)[C@H](Cc2cccc3ccccc23)NC(=O)CSC[C@H](C(=O)O)NC(=O)[C@H](Cc2ccccc2)N(C)C(=O)[C@H](CCCC)NC(=O)[C@H](Cc2ccc(O)cc2)NC1=O [compound 141, cyclo(INal-R-Phe4Gn-Nle-Y-Nle-NMeF-dC-ClAc)] ({CH2CO}-[1Nal]R[Phe(4-guanidino)][Nle]Y[Nle][NMeF][dC]-OH; thioether N-8) | 16.8 |
| CCC[C@@H]1NC(=O)[C@H](Cc2ccc(O)cc2)NC(=O)[C@H](CC(C)C)NC(=O)[C@H](Cc2ccc(O)cc2)NC(=O)[C@H](CCCNC(=N)N)NC(=O)[C@H](Cc2ccccc2)NC(=O)CSCCNC(=O)[C@H](Cc2ccccc2)N(C)C1=O [compound 83, cyclo(F-R-Y-L-Y-Nva-NMeF-Cysteamine-ClAc)] | 6350 |
| CC(C)CC[C@@H]1NC(=O)[C@H](Cc2cnc(F)cc2F)NC(=O)[C@H](CC2CC2)NC(=O)[C@H](Cc2cncnc2)NC(=O)[C@H](C)N(C)C(=O)[C@H](Cc2ccccc2)OC(=O)C23CC(CNC(=O)[C@H](Cc4ccccc4)N(C)C1=O)(C2)C3 [compound 294, cyclo(FLac-NMeA-PyrimAla-cPrA-3Pal46F2-hL-NMeF-amBCP)] (cyclo([Ala(cPr)][X37][hLeu][NMeF][X1][PhLac][NMeA][Ala(pyrimidin-5-yl)])) | 7 |
| CON=C1C[C@@H](Cc2ccccc2)C(=O)N(C)[C@@H](C)C(=O)N[C@@H](Cc2cncnc2)C(=O)N[C@@H](CC2CC2)C(=O)N[C@@H](Cc2ccccc2F)C(=O)N[C@@H](CCC(C)(F)F)C(=O)N(C)[C@@H](Cc2ccccc2)C(=O)NCC23CC1(C2)C3 (single isomer, unassigned) [compound 177, cyclo(CPhe-NMeA-PyrimAla-cPrA-Phe2F-Nle3F2-NMeF-MeOximamBCP)] | 51 |
| CCCCC[C@@H]1NC(=O)[C@H](Cc2ccc(O)cc2)NC(=O)[C@H](CC(C)C)NC(=O)[C@H](Cc2ccc(O)cc2)NC(=O)[C@@H](CCCNC(=N)N)NC(=O)[C@H](Cc2ccccc2)NC(=O)CSC[C@@H](C(N)=O)NC(=O)[C@H](Cc2ccccc2)N(C)C1=O [compound 4, cyclo(F-dR-Y-L-Y-Ahp-NMeF-Cl-ClAc)] | 3280 |
| CCCC[C@@H]1NC(=O)[C@H](Cc2ccc(F)nc2)NC(=O)[C@H](C)N(C)C(=O)[C@H](Cc2ccccc2)OC(=O)C23CC(CNC(=O)[C@H](Cc4cccnc4)N(C)C(=O)[C@H](CCCC)NC(=O)[C@H](Cc4ccccc4F)NC1=O)(C2)C3 [compound 235, cyclo(FLac-NMeA-4F3Pal-Nle-Phe2F-Nle-NMe3Pal-amBCP)] (cyclo([NMe3Pal][X1][PhLac][NMeA][X25][Nle][Phe(2-F)][Nle])) | 18.7 |
| C[C@H]1C(=O)N[C@@H](Cc2cccnc2)C(=O)N[C@@H](CC2CC2)C(=O)N[C@@H](Cc2ccccc2F)C(=O)N[C@@H](CCC(C)(F)F)C(=O)N(C)[C@@H](Cc2ccccc2)C(=O)NCC23CC(C2)(C3)C(=O)O[C@@H](Cc2ccccc2)C(=O)N1C [compound 289, cyclo(FLac-NMeA-3Pal-cPrA-Phe2F-Nle3F2-NMeF-amBCP)] (cyclo([3Pal][Ala(cPr)][Phe(2-F)][Nle(5,5-F2)][NMeF][X1][PhLac][NMeA])) | 9 |
| CCCC[C@@H]1NC(=O)[C@H](Cc2cnc(S(C)(=O)=O)nc2)NC(=O)[C@H](C)N(C)C(=O)[C@H](Cc2ccccc2)OC(=O)C23CC(CNC(=O)[C@H](Cc4ccccc4)N(C)C(=O)[C@H](CCCC)NC(=O)[C@H](Cc4ccccc4F)NC1=O)(C2)C3 [compound 313, cyclo(FLac-NMeA-AlaPyrim4SO2Me-Nle-Phe2F-Nle-NMeF-amBCP)] (cyclo([NMeA][X82][Nle][Phe(2-F)][Nle][NMeF][X1][PhLac])) | 5.22 |
| CCCC[C@@H]1NC(=O)[C@H](Cc2ccncc2)NC(=O)[C@H](CCCNC(=N)N)NC(=O)[C@H](Cc2cccc3ccccc23)NC(=O)CSC[C@@](C)(C(N)=O)NC(=O)[C@H](Cc2cccnc2)N(C)C(=O)[C@H](CCCC)NC(=O)[C@H](Cc2ccc(O)cc2)NC1=O [compound 333, cyclo(INal-R-4Pal-Nle-Y-Nle-NMe3Pal-aMeCl-ClAc)] ({CH2CO}-[1Nal]R[4Pal][Nle]Y[Nle][NMe3Pal][αMeC]-NH2; thioether N-8) | 19.9 |
| CC(C)CC[C@@H]1NC(=O)[C@H](Cc2ccccc2F)NC(=O)[C@H](CC23CC(C2)C3)NC(=O)[C@H](Cc2cncnc2)NC(=O)[C@H](C)N(C)C(=O)[C@H](Cc2ccccc2)OC(=O)C23CC(CNC(=O)[C@H](Cc4ccccc4)N(C)C1=O)(C2)C3 [compound 272, cyclo(FLac-NMeA-PyrimAla-AlaPent-Phe2F-hL-NMeF-amBCP)] (cyclo([NMeA][Ala(pyrimidin-5-yl)][Ala(1-bicyclo(1.1.1)pentyl)][Phe(2-F)][hLeu][NMeF][X1][PhLac])) | 477 |

Same assay, conditions: listed as 189

| Compound | EC50 [nM] |
| --- | --- |
| COc1ccc(C[C@@H]2NC(=O)[C@H](CC3CCC3)NC(=O)[C@H](Cc3cccnc3)NC(=O)[C@H](CCCNC(=N)N)NC(=O)[C@H](Cc3ccccc3)NC(=O)CSC[C@](C)(C(N)=O)NC(=O)[C@@H]3CCCCCCC[C@H](NC2=O)C(=O)N3C)cc1 (single isomer, unassigned) [SEQ ID NO: 189] | 1560 |
